≈ marks a conversion by molar mass, not a printed value.
What was measured:
Type in all cases: cell-based
Staphylococcus aureus = experiment: MIC against clinical isolates; settings: Table 6-1, clinical isolate; unit assumed
Proteus vulgaris = experiment: MIC against clinical isolates; settings: Table 6-5, clinical isolate; unit assumed
Proteus rettgeri = experiment: MIC against clinical isolates; settings: Table 6-5, clinical isolate; unit assumed
Klebsiella pneumoniae [1] = experiment: MIC against clinical isolates; settings: Table 6-4, clinical isolate; unit assumed
[2] = test system: Staphylococcus aureus 209p; experiment: MIC, plate method, standard strains; settings: Table 4, standard strain; unit assumed
How it was run: (§1)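 Test compound was incorporated into Heart infusion agar at pH 7.4, plates were inoculated with 10^4 cells each (suspension at 10^6 cells/ml), and the minimum inhibitory concentration was recorded.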

Escherichia coli NIHJ = experiment: MIC, plate method, standard strains; settings: Table 4, standard strain; unit assumed
How it was run: as §1

[3] = test system: Pseudomonas aeruginosa I.F.O.; experiment: MIC, plate method, standard strains; settings: Table 4, standard strain; unit assumed
How it was run: as §1

Proteus vulgaris 3027 = experiment: MIC, plate method, standard strains; settings: Table 4, standard strain; unit assumed
How it was run: as §1

Klebsiella pneumoniae [4] = experiment: MIC, plate method, standard strains; settings: Table 4, standard strain; unit assumed
How it was run: as §1

Proteus morganii = experiment: MIC against clinical isolates; settings: Table 6-5, clinical isolate; unit assumed
Proteus mirabilis = experiment: MIC against clinical isolates; settings: Table 6-5, clinical isolate; unit assumed
Pseudomonas aeruginosa = experiment: MIC against clinical isolates; settings: unit assumed; for MIC Pseudomonas aeruginosa S-1: Table 6-4, clinical isolate
Escherichia coli = experiment: MIC against clinical isolates; settings: Table 6-2, clinical isolate; unit assumed

**Q.** `CCN1CCN(C(=O)NC(C(=O)NC2C(=O)N3C(C(=O)O)=C(CSc4nnnn4CC)CSC23)c2ccccc2)C(=O)C1=O` (single isomer, unassigned) [Compound No. 77] was tested. Which MIC Staphylococcus aureus F-1 (Staphylococcus aureus) did it give?
**A.** 1.56 µg/mL (≈ 2.42 µM)

**Q.** What about the MIC Staphylococcus aureus MS 8588 (Staphylococcus aureus) of the same molecule?
**A.** 1.56 µg/mL (≈ 2.42 µM)

**Q.** What about the MIC Staphylococcus aureus MS 8596 (Staphylococcus aureus) of the same molecule?
**A.** 1.56 µg/mL (≈ 2.42 µM)

**Q.** What about the MIC Staphylococcus aureus MS 8619 (Staphylococcus aureus) of the same molecule?
**A.** 1.56 µg/mL (≈ 2.42 µM)

**Q.** And the MIC Staphylococcus aureus MS 8684 (Staphylococcus aureus)?
**A.** 1.56 µg/mL (≈ 2.42 µM)

**Q.** What about the MIC Proteus vulgaris (Proteus vulgaris) of the same molecule?
**A.** 0.78 µg/mL (≈ 1.21 µM)

**Q.** What about the MIC Proteus rettgeri (Proteus rettgeri) of the same molecule?
**A.** 1.56 µg/mL (≈ 2.42 µM)

**Q.** What about the MIC Klebsiella pneumoniae GN 917 (Klebsiella pneumoniae [1]) of the same molecule?
**A.** 1.56 µg/mL (≈ 2.42 µM)

**Q.** What about the MIC Klebsiella pneumoniae GN 4081 (Klebsiella pneumoniae [1]) of the same molecule?
**A.** 3.13 µg/mL (≈ 4.86 µM)

**Q.** And the MIC Staphylococcus aureus 209p [2]?
**A.** 1.57 µg/mL (≈ 2.44 µM)

**Q.** What about the MIC Escherichia coli NIHJ (Escherichia coli NIHJ) of the same molecule?
**A.** < 0.1 µg/mL

**Q.** And the MIC Pseudomonas aeruginosa I.F.O. [3]?
**A.** 25 µg/mL (≈ 38.8 µM)

**Q.** What about the MIC Proteus vulgaris 3027 (Proteus vulgaris 3027) of the same molecule?
**A.** 1.57 µg/mL (≈ 2.44 µM)

**Q.** And the MIC Klebsiella pneumoniae (Klebsiella pneumoniae [4])?
**A.** 0.4 µg/mL (≈ 0.621 µM)

**Q.** And the MIC Proteus morganii (Proteus morganii)?
**A.** 1.56 µg/mL (≈ 2.42 µM)

**Q.** And the MIC Proteus mirabilis (Proteus mirabilis)?
**A.** 1.56 µg/mL (≈ 2.42 µM)

**Q.** What about the MIC Pseudomonas aeruginosa GN (Pseudomonas aeruginosa; Table 6-3, clinical isolate, strain number not given) of the same molecule?
**A.** 25 µg/mL (≈ 38.8 µM)

**Q.** What about the MIC Pseudomonas aeruginosa GN4 (Pseudomonas aeruginosa; Table 6-3, clinical isolate) of the same molecule?
**A.** 25 µg/mL (≈ 38.8 µM)

**Q.** And the MIC Pseudomonas aeruginosa GN 82 (Pseudomonas aeruginosa; Table 6-3, clinical isolate)?
**A.** 25 µg/mL (≈ 38.8 µM)

**Q.** What about the MIC Pseudomonas aeruginosa GN 221 (Pseudomonas aeruginosa; Table 6-3, clinical isolate) of the same molecule?
**A.** 12.5 µg/mL (≈ 19.4 µM)

**Q.** What about the MIC Pseudomonas aeruginosa GN 376 (Pseudomonas aeruginosa; Table 6-3, clinical isolate) of the same molecule?
**A.** 25 µg/mL (≈ 38.8 µM)

**Q.** What about the MIC Pseudomonas aeruginosa GN 1035 (Pseudomonas aeruginosa; Table 6-3, clinical isolate) of the same molecule?
**A.** 50 µg/mL (≈ 77.7 µM)

**Q.** What about the MIC Pseudomonas aeruginosa GN 1091 (Pseudomonas aeruginosa; Table 6-3, clinical isolate) of the same molecule?
**A.** 25 µg/mL (≈ 38.8 µM)

**Q.** What about the MIC Pseudomonas aeruginosa GN 2565 (Pseudomonas aeruginosa; Table 6-3, clinical isolate) of the same molecule?
**A.** 50 µg/mL (≈ 77.7 µM)

**Q.** What about the MIC Pseudomonas aeruginosa S-1 (Pseudomonas aeruginosa) of the same molecule?
**A.** 50 µg/mL (≈ 77.7 µM)

**Q.** And the MIC Escherichia coli GN 3435 (Escherichia coli)?
**A.** 1.56 µg/mL (≈ 2.42 µM)

**Q.** What about the MIC Escherichia coli GN 3452 (Escherichia coli) of the same molecule?
**A.** 1.56 µg/mL (≈ 2.42 µM)

**Q.** What about the MIC Escherichia coli GN 3465 (Escherichia coli) of the same molecule?
**A.** 6.25 µg/mL (≈ 9.71 µM)

**Q.** And the MIC Escherichia coli K-2 (Escherichia coli)?
**A.** 3.13 µg/mL (≈ 4.86 µM)

**Q.** What about the MIC Escherichia coli K-4 (Escherichia coli) of the same molecule?
**A.** 1.56 µg/mL (≈ 2.42 µM)

**Q.** How did the MIC Staphylococcus aureus F-1 (Staphylococcus aureus) turn out when `CCN1CCN(C(=O)NC(C(=O)NC2C(=O)N3C(C(=O)O)=C(CSc4nncs4)CSC23)c2ccc(O)cc2)C(=O)C1=O` (single isomer, unassigned) [Compound No. 79] was run?
**A.** 1.56 µg/mL (≈ 2.41 µM)

**Q.** And the MIC Staphylococcus aureus MS 8588 (Staphylococcus aureus)?
**A.** 3.13 µg/mL (≈ 4.83 µM)

**Q.** And the MIC Staphylococcus aureus MS 8596 (Staphylococcus aureus)?
**A.** 3.13 µg/mL (≈ 4.83 µM)

**Q.** And the MIC Staphylococcus aureus MS 8619 (Staphylococcus aureus)?
**A.** 1.56 µg/mL (≈ 2.41 µM)

**Q.** What about the MIC Staphylococcus aureus MS 8684 (Staphylococcus aureus) of the same molecule?
**A.** 1.56 µg/mL (≈ 2.41 µM)

**Q.** And the MIC Proteus vulgaris (Proteus vulgaris)?
**A.** 0.39 µg/mL (≈ 0.602 µM)

**Q.** And the MIC Proteus rettgeri (Proteus rettgeri)?
**A.** 3.13 µg/mL (≈ 4.83 µM)

**Q.** And the MIC Klebsiella pneumoniae GN 917 (Klebsiella pneumoniae [1])?
**A.** 0.78 µg/mL (≈ 1.2 µM)

**Q.** What about the MIC Klebsiella pneumoniae GN 4081 (Klebsiella pneumoniae [1]) of the same molecule?
**A.** 12.5 µg/mL (≈ 19.3 µM)

**Q.** And the MIC Staphylococcus aureus 209p [2]?
**A.** 1.57 µg/mL (≈ 2.42 µM)

**Q.** And the MIC Escherichia coli NIHJ (Escherichia coli NIHJ)?
**A.** < 0.1 µg/mL

**Q.** And the MIC Pseudomonas aeruginosa I.F.O. [3]?
**A.** 3.13 µg/mL (≈ 4.83 µM)

**Q.** What about the MIC Proteus vulgaris 3027 (Proteus vulgaris 3027) of the same molecule?
**A.** 3.13 µg/mL (≈ 4.83 µM)

**Q.** What about the MIC Klebsiella pneumoniae (Klebsiella pneumoniae [4]) of the same molecule?
**A.** 0.79 µg/mL (≈ 1.22 µM)

**Q.** And the MIC Proteus morganii (Proteus morganii)?
**A.** 1.56 µg/mL (≈ 2.41 µM)

**Q.** What about the MIC Proteus mirabilis (Proteus mirabilis) of the same molecule?
**A.** 1.56 µg/mL (≈ 2.41 µM)

**Q.** What about the MIC Pseudomonas aeruginosa GN4 (Pseudomonas aeruginosa; Table 6-3, clinical isolate) of the same molecule?
**A.** 12.5 µg/mL (≈ 19.3 µM)

**Q.** What about the MIC Pseudomonas aeruginosa GN 82 (Pseudomonas aeruginosa; Table 6-3, clinical isolate) of the same molecule?
**A.** 12.5 µg/mL (≈ 19.3 µM)

**Q.** And the MIC Pseudomonas aeruginosa GN 221 (Pseudomonas aeruginosa; Table 6-3, clinical isolate)?
**A.** 6.25 µg/mL (≈ 9.65 µM)

**Q.** What about the MIC Pseudomonas aeruginosa GN 376 (Pseudomonas aeruginosa; Table 6-3, clinical isolate) of the same molecule?
**A.** 6.25 µg/mL (≈ 9.65 µM)

**Q.** What about the MIC Pseudomonas aeruginosa GN 1035 (Pseudomonas aeruginosa; Table 6-3, clinical isolate) of the same molecule?
**A.** 25 µg/mL (≈ 38.6 µM)

**Q.** And the MIC Pseudomonas aeruginosa GN 1091 (Pseudomonas aeruginosa; Table 6-3, clinical isolate)?
**A.** 12.5 µg/mL (≈ 19.3 µM)

**Q.** What about the MIC Pseudomonas aeruginosa GN 2565 (Pseudomonas aeruginosa; Table 6-3, clinical isolate) of the same molecule?
**A.** 25 µg/mL (≈ 38.6 µM)

**Q.** And the MIC Pseudomonas aeruginosa S-1 (Pseudomonas aeruginosa)?
**A.** 25 µg/mL (≈ 38.6 µM)

**Q.** And the MIC Escherichia coli GN 3435 (Escherichia coli)?
**A.** 0.39 µg/mL (≈ 0.602 µM)

**Q.** What about the MIC Escherichia coli GN 3452 (Escherichia coli) of the same molecule?
**A.** 0.39 µg/mL (≈ 0.602 µM)

**Q.** What about the MIC Escherichia coli GN 3465 (Escherichia coli) of the same molecule?
**A.** 3.13 µg/mL (≈ 4.83 µM)

**Q.** What about the MIC Escherichia coli K-2 (Escherichia coli) of the same molecule?
**A.** 1.56 µg/mL (≈ 2.41 µM)

**Q.** And the MIC Escherichia coli K-4 (Escherichia coli)?
**A.** 0.78 µg/mL (≈ 1.2 µM)

Source: patent US4327097A, “Novel penicillins” (Toyama Chemical Co., Ltd., priority 1974, dated 1982)
